Measured values reported in the NIST ThermoML archive (doi:10.1021/je200609g).

Assay: xn = mol fraction of the nth substance listed
Conditions: 101 kPa, Liquid; for mass density: Vibrating tube method

CCn1cc[n+](C)c1.O=S(=O)([O-])C(F)(F)F [1-ethyl-3-methylimidazolium trifluoromethanesulfonate] + CC(C)O
speed of sound [m/s], Sing-around technique in a fixed-path interferometer
Conditions	278.15 K	288.15 K	298.15 K	308.15 K	318.15 K	328.15 K
x1 = 0.0499	1220.6	1188.2	1156.4	1124.5	1092.5	1060.1
x1 = 0.0996	1233.3	1203.2	1173.6	1143.9	1114.1	1084.3
x1 = 0.15	1249.7	1221.4	1193.3	1165.3	1137.2	1109
x1 = 0.2001	1267.9	1240.6	1213.7	1186.8	1159.9	1133
x1 = 0.2994	1305.6	1279.7	1254.2	1228.8	1203.6	1178.5
x1 = 0.4004	1341.7	1316.5	1291.8	1267.5	1243.3	1219.5
x1 = 0.4997	1373.6	1348.8	1324.7	1301	1277.6	1254.6
x1 = 0.5999	1401.7	1377.3	1353.6	1330.4	1307.7	1285.2
x1 = 0.7019	1426.3	1402.6	1379.4	1356.7	1334.4	1312.6
x1 = 0.7987	1447	1423.4	1400.5	1378.1	1356.2	1334.8
x1 = 0.8519	1458	1434.1	1411.2	1388.7	1366.7	1345.2
x1 = 0.8989	1465.9	1442.5	1419.8	1397.5	1375.9	1354.6
x1 = 0.9462	1474.3	1450.8	1428.1	1406	1384.3	1363.1

mass density [kg/m3]
Conditions	278.15 K	288.15 K	298.15 K	308.15 K	318.15 K	328.15 K
x1 = 0.0499	868.82	860.62	852.27	843.73	834.95	825.89
x1 = 0.0996	929.8	921.53	913.15	904.62	895.92	887.02
x1 = 0.15	984.2	975.84	967.41	958.87	950.21	941.42
x1 = 0.2001	1032.07	1023.66	1015.19	1006.67	998.06	989.35
x1 = 0.2994	1111.77	1103.29	1094.81	1086.3	1077.77	1069.21
x1 = 0.4004	1177.58	1169.07	1160.58	1152.12	1143.67	1135.22
x1 = 0.4997	1231.42	1222.91	1214.45	1206.03	1197.63	1189.27
x1 = 0.5999	1276.64	1268.13	1259.68	1251.27	1242.91	1234.58
x1 = 0.7019	1315.15	1306.65	1298.2	1289.82	1281.48	1273.2
x1 = 0.7987	1347.13	1338.64	1330.2	1321.82	1313.5	1305.24
x1 = 0.8519	1362.88	1354.39	1345.96	1337.58	1329.26	1320.99
x1 = 0.8989	1375.94	1367.46	1359.02	1350.65	1342.33	1334.07
x1 = 0.9462	1388.37	1379.89	1371.46	1363.08	1354.76	1346.5

CCn1cc[n+](C)c1.O=S(=O)([O-])C(F)(F)F [1-ethyl-3-methylimidazolium trifluoromethanesulfonate] + C1CCOC1
Conditions	mass density, 278.15 K [kg/m3]	mass density, 288.15 K [kg/m3]	mass density, 298.15 K [kg/m3]	mass density, 308.15 K [kg/m3]	mass density, 318.15 K [kg/m3]	speed of sound, 278.15 K [m/s]	speed of sound, 288.15 K [m/s]	speed of sound, 298.15 K [m/s]	speed of sound, 308.15 K [m/s]	speed of sound, 318.15 K [m/s]
x1 = 0.051	964.39	953.89	943.29	932.59	921.76	1362.7	1316.9	1271.7	1227	1182.8
x1 = 0.1	1013.94	1003.61	993.23	982.77	972.18	–	1318.7	1275.5	1233.3	1191.4
x1 = 0.1503	1059.68	1049.68	1039.61	1029.5	1019.22	–	1325.4	1285.5	1246.5	1207.2
x1 = 0.2001	1098.67	1088.88	1079.04	1069.18	1059.3	1373.3	1334.8	1297.4	1260.7	1224.5
x1 = 0.3001	1166.19	1155.19	1145.24	1135.87	1126.45	1387.7	1353.8	1320.8	1288.7	1257.1
x1 = 0.3992	1217.18	1207.94	1198.76	1189.62	1180.52	1403.5	1372.7	1342.8	1313.3	1284.5
x1 = 0.4995	1261.1	1252.06	1243.08	1234.16	1225.28	1414.7	1388	1361.4	1335.5	1309.7
x1 = 0.599	1297.75	1288.87	1280.05	1271.3	1262.63	1432.5	1405.8	1379.9	1354.5	1329.9
x1 = 0.7014	1330	1321.24	1312.54	1303.92	1295.36	1446.6	1421.4	1396.8	1372.6	1349
x1 = 0.7965	1356.21	1347.55	1338.96	1330.44	1321.98	1459	1434.6	1410.8	1387.6	1365.1
x1 = 0.849	1369.15	1360.54	1352	1343.53	1335.11	1465.4	1441.4	1418.1	1395.2	1372.9
x1 = 0.899	1380.34	1371.78	1363.27	1354.82	1346.41	1470.5	1446.4	1423.1	1400.3	1378.1
x1 = 0.9511	1391.34	1382.83	1374.36	1365.93	1357.57	1476	1452.3	1429.2	1406.8	1384.9
